Source: ChEMBL document CHEMBL1135808, “A new type of mixed anhydride and its applications to the synthesis of 7-substituted 8-chloro-5,5-dioxoimidazo[1,2-b][1,4,2]benzodithiazines with in vitro antitumor activity” (2002)

The compounds below were run on U-251 (assay: Log of molar concentration leading to 50% cell death against CNS cancer U251 cell line was reported). Settings: Homo sapiens, read-out: Log LC50 (the source's name) (converted).
Assay type: functional
`O=C(Nc1nccs1)c1cc2c(cc1Cl)Sc1nccn1S2(=O)=O` showed a CC50 of 56.2 µM.

The compounds below were run on COLO 205 (assay: In vitro total growth inhibition against colon cancer COLO 205 cell lines was reported.). Settings: Homo sapiens, read-out: Log TGI (converted).
Assay type: functional
`O=C(Nc1nccs1)c1cc2c(cc1Cl)Sc1nccn1S2(=O)=O` showed a TGI of 30.9 µM.

Each compound was assayed on HT-29 (assay: In vitro growth inhibition against colon cancer HT-29 cell line was reported.). Settings: Homo sapiens.
Assay type: functional
With `O=C(Nc1nccs1)c1cc2c(cc1Cl)Sc1nccn1S2(=O)=O` the GI50 was 20 µM.

What follows are compounds tested on SNB-19 (assay: In vitro total growth inhibition against CNS cancer SNB-19 cell lines was reported.). Settings: Homo sapiens, read-out: Log TGI (converted).
Assay type: functional
`O=C(Nc1nccs1)c1cc2c(cc1Cl)Sc1nccn1S2(=O)=O` gave a TGI of 37.2 µM.

Each compound was assayed on K562 (assay: In vitro growth inhibition against leukemia K-562 cell line was reported.). Settings: Homo sapiens.
Assay type: functional
`O=C(Nc1nccs1)c1cc2c(cc1Cl)Sc1nccn1S2(=O)=O` showed a GI50 of 15.8 µM.

The compounds below were run on RPMI-8226 (assay: In vitro total growth inhibition against leukemia […] cell lines was reported.). Settings: Homo sapiens, read-out: Log TGI (converted).
Assay type: functional
`O=C(Nc1nccs1)c1cc2c(cc1Cl)Sc1nccn1S2(=O)=O` showed a TGI of 23.4 µM.

Each compound was assayed on MDA-MB-231 (assay: Log of molar concentration leading to 50% cell death against breast cancer MDA-MB-231/ATCC cell line was reported). Settings: Homo sapiens, read-out: Log LC50 (the source's name) (converted).
Assay type: functional
With `O=C(Nc1nccs1)c1cc2c(cc1Cl)Sc1nccn1S2(=O)=O` the CC50 was 67.6 µM.

The compounds below were run on NCI-H322M (assay: In vitro growth inhibition against non-small-cell lung cancer […] cell line was reported.). Settings: Homo sapiens.
Assay type: functional
For `O=C(Nc1nccs1)c1cc2c(cc1Cl)Sc1nccn1S2(=O)=O`, the GI50 was 17.4 µM.

What follows are compounds tested on SK-MEL-28 (assay: In vitro total growth inhibition against melanoma SK-MEL-28 cell lines was reported.). Settings: Homo sapiens, read-out: Log TGI (converted).
Assay type: functional
`O=C(Nc1nccs1)c1cc2c(cc1Cl)Sc1nccn1S2(=O)=O` gave a TGI of 38 µM.

What follows are compounds tested on SF-295 (assay: In vitro total growth inhibition against CNS cancer SF-295 cell lines was reported.). Settings: Homo sapiens, read-out: Log TGI (converted).
Assay type: functional
In the case of `O=C(Nc1nccs1)c1cc2c(cc1Cl)Sc1nccn1S2(=O)=O`, the TGI is reported as 34.7 µM.

Each compound was assayed on Malme-3M (assay: In vitro growth inhibition against melanoma MALME 3M cell line was reported.). Settings: Homo sapiens.
Assay type: functional
`O=C(Nc1nccs1)c1cc2c(cc1Cl)Sc1nccn1S2(=O)=O` gave a GI50 of 20 µM.

The compounds below were run on Hs-578T (assay: In vitro growth inhibition against breast cancer HS 578T cell line was reported.). Settings: Homo sapiens.
Assay type: functional
`O=C(Nc1nccs1)c1cc2c(cc1Cl)Sc1nccn1S2(=O)=O` gave a GI50 of 28.2 µM.

These compounds were tested on KM12 (assay: In vitro total growth inhibition against colon cancer KM12 cell lines was reported.). Settings: Homo sapiens, read-out: Log TGI (converted).
Assay type: functional
In the case of `O=C(Nc1nccs1)c1cc2c(cc1Cl)Sc1nccn1S2(=O)=O`, the TGI is reported as 26.3 µM.

The compounds below were run on OVCAR-8 (assay: In vitro growth inhibition against ovarian cancer OVCAR-8 cell line was reported.). Settings: Homo sapiens.
Assay type: functional
`O=C(Nc1nccs1)c1cc2c(cc1Cl)Sc1nccn1S2(=O)=O` showed a GI50 of 17.4 µM.

What follows are compounds tested on IGROV-1 (assay: In vitro total growth inhibition against ovarian cancer IGROV1 cell lines was reported.). Settings: Homo sapiens, read-out: Log TGI (converted).
Assay type: functional
Compound `O=C(Nc1nccs1)c1cc2c(cc1Cl)Sc1nccn1S2(=O)=O` has a TGI of 29.5 µM.

Species: Homo sapiens
Test: In vitro total growth inhibition against non-small-cell lung cancer EKVX cell lines was reported.
Assay type: functional
Settings: read-out: Log TGI (converted)
Compound `O=C(Nc1nccs1)c1cc2c(cc1Cl)Sc1nccn1S2(=O)=O` has a TGI of 44.7 µM.

The compounds below were run on TK-10 (assay: In vitro growth inhibition against renal cancer TK-10 cell line was reported.). Settings: Homo sapiens.
Assay type: functional
With `O=C(Nc1nccs1)c1cc2c(cc1Cl)Sc1nccn1S2(=O)=O` the GI50 was 19.1 µM.

The compounds below were run on NCI-H522 (assay: In vitro total growth inhibition against non-small-cell lung cancer NCI-522 cell lines was reported.). Settings: Homo sapiens, read-out: Log TGI (converted).
Assay type: functional
For `O=C(Nc1nccs1)c1cc2c(cc1Cl)Sc1nccn1S2(=O)=O`, the TGI was 2.82 µM.

Each compound was assayed on BT-549 (assay: In vitro total growth inhibition against breast cancer BT 549 cell line was reported.). Settings: Homo sapiens, read-out: Log TGI (converted).
Assay type: functional
`O=C(Nc1nccs1)c1cc2c(cc1Cl)Sc1nccn1S2(=O)=O` showed a TGI of 35.5 µM.

What follows are compounds tested on HOP-62 (assay: Log of molar concentration leading to 50% cell death against non-small-cell lung cancer HOP-62 cell line was reported). Settings: Homo sapiens, read-out: Log LC50 (the source's name) (converted).
Assay type: functional
With `O=C(Nc1nccs1)c1cc2c(cc1Cl)Sc1nccn1S2(=O)=O` the CC50 was 61.7 µM.

What follows are compounds tested on Tumor Cell line (assay: Log of molar concentration leading to 50% cell death was reported). Settings: Homo sapiens, read-out: Log LC50 (the source's name) (converted).
Assay type: functional
Work on `O=C(Nc1nccs1)c1cc2c(cc1Cl)Sc1nccn1S2(=O)=O` yielded a CC50 of 97.7 µM.

The compounds below were run on CCRF-CEM (assay: In vitro total growth inhibition against leukemia CCRF cell lines was reported.). Settings: Homo sapiens, read-out: Log TGI (converted).
Assay type: functional
For `O=C(Nc1nccs1)c1cc2c(cc1Cl)Sc1nccn1S2(=O)=O`, the TGI was 24.5 µM.

The compounds below were run on OVCAR-3 (assay: In vitro growth inhibition against ovarian cancer OVCAR-3 cell line was reported.). Settings: Homo sapiens.
Assay type: functional
In the case of `O=C(Nc1nccs1)c1cc2c(cc1Cl)Sc1nccn1S2(=O)=O`, the GI50 is reported as 15.1 µM.

These compounds were tested on HCT-116 (assay: Log of molar concentration leading to 50% cell death against colon cancer HCT116 cell line was reported). Settings: Homo sapiens, read-out: Log LC50 (the source's name) (converted).
Assay type: functional
`O=C(Nc1nccs1)c1cc2c(cc1Cl)Sc1nccn1S2(=O)=O` showed a CC50 of 55 µM.

These compounds were tested on HCT-15 (assay: In vitro growth inhibition against colon cancer […] cell line was reported.). Settings: Homo sapiens.
Assay type: functional
Work on `O=C(Nc1nccs1)c1cc2c(cc1Cl)Sc1nccn1S2(=O)=O` yielded a GI50 of 12.3 µM.

These compounds were tested on HCT-116 (assay: In vitro growth inhibition against colon cancer HCT116 cell line was reported.). Settings: Homo sapiens.
Assay type: functional
For `O=C(Nc1nccs1)c1cc2c(cc1Cl)Sc1nccn1S2(=O)=O`, the GI50 was 16.2 µM.

Each compound was assayed on 786-0 (assay: In vitro growth inhibition against renal cancer […] cell line was reported.). Settings: Homo sapiens.
Assay type: functional
Work on `O=C(Nc1nccs1)c1cc2c(cc1Cl)Sc1nccn1S2(=O)=O` yielded a GI50 of 15.8 µM.

These compounds were tested on SW-620 (assay: In vitro total growth inhibition against colon cancer SW-620 cell lines was reported.). Settings: Homo sapiens, read-out: Log TGI (converted).
Assay type: functional
`O=C(Nc1nccs1)c1cc2c(cc1Cl)Sc1nccn1S2(=O)=O` was tested, and the TGI was 41.7 µM.

What follows are compounds tested on HL-60 (assay: In vitro total growth inhibition against leukemia HL-60(TB) cell lines was reported.). Settings: Homo sapiens, read-out: Log TGI (converted).
Assay type: functional
With `O=C(Nc1nccs1)c1cc2c(cc1Cl)Sc1nccn1S2(=O)=O` the TGI was 30.9 µM.

These compounds were tested on NCI-H23 (assay: In vitro total growth inhibition against non-small-cell lung cancer NCI-H23 cell lines was reported.). Settings: Homo sapiens, read-out: Log TGI (converted).
Assay type: functional
`O=C(Nc1nccs1)c1cc2c(cc1Cl)Sc1nccn1S2(=O)=O` showed a TGI of 33.9 µM.
